Assay results from PMC6368403, “Identification of a bilirubin receptor that may mediate a component of cholestatic itch” (eLife, 2019).
Values joined by “and” are separate entries in the source; they are usually repeats but may differ in a detail not shown here. Equal entries are not always repeated. Each block holds one compound with its values, some of them ahead of it. Square brackets hold non-standard residues; d marks the D form. Peptide text beside a SMILES is read from it. * marks the point of attachment. Boc = CC(C)(C)OC(=O)*; OBn = c1ccc(CO*)cc1; For = O=C*

Key:
mice = assay: Plasma injection assay: scratching bouts after injection of mouse or human plasma; type: in vivo; settings: plasma treated with FeCl3 (vs NT), one value per animal
Excerpt: Plasma from patients suffering from hyperbilirubinemia, specifically cholestasis, was isolated under a protocol approved by the Institutional Review Board at the Johns Hopkins University School of Medicine (Study number: IRB00154650). […] Both cholestatic and control plasma were isolated under protocols approved by the Institutional Review Board at the Johns Hopkins University School of Medicine (Cholestasis Study number: IRB00154650; Control study number: NA_00013177, the Johns Hopkins Department of Dermatology Patient Database and Tissue Bank). Whole blood was collected into PAXgene tubes (PreAnalytiX 761115) and centrifuged for 5 min at 300 g. Plasma was then collected, aliquoted, and stored at −20°C until experimentation. […] All applicable behavioral tests were performed and analysed with the experimenter blind to genotype. […] There were no significant differences in itch between male and female mice. […] On the day before the experiment, animals were placed in the test chamber for 30 min before being subjected to a series of three mock injections with 5 min break periods in between. On the day of the experiment, animals were first allowed to acclimatize to the test chamber for 10 min before injection. […] A bout of scratching was defined as a continuous scratching movement with either hindpaw directed at the area of the injection site. In the cheek injection model, a wipe was defined as a single forepaw stroking the site of the injection. Use of both forepaws on the face or cheek was considered as grooming behavior. […] For H1R block, 30 mg/kg of cetirizine HCl (pH 7.4) was given intraperitoneally thirty minutes prior to injection of bilirubin. Licking behavior was quantified in seconds and identified as the licking of the toes or footpad of the hind paw site of injection that was neither preceded nor followed by licking of any other portion of the body.

[1] = mouse, in vivo, 1 mg/kg
[2] = cited from earlier work
[3] = target: MRGPRA1, GFP-tagged (mouse) (UniProt Q91WW5)
Chain of MRGPRA1, GFP-tagged (mouse) (Q91WW5 whole entry): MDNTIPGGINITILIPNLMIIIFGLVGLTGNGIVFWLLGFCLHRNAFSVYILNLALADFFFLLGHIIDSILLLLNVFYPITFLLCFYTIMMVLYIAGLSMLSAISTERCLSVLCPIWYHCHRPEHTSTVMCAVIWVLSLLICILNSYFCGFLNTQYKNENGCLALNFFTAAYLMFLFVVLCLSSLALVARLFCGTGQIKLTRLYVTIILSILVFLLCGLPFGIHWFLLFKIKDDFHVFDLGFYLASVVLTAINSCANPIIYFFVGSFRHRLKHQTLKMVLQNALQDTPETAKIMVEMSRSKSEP

Compound: [Cl][Fe]([Cl])[Cl] [FeCl3]
Scratching bouts after injection of plasma (mice; NT values equal cholestasis WT c1 of sheet Fig 7 - CD): 75 and 132 and 54 and 111 and 173 and 58 and 34
Scratching bouts after injection of plasma (mice; NT/FeCl3 pair, NT values equal cholestasis WT c7 of sheet Fig 7 - CD): 117 and 53 and 60 and 54 and 67
Scratching bouts after injection of plasma (mice; NT/FeCl3 pair, plasma source not given): 45 and 53 and 51 and 41 and 34

Compound: CC(C)(C)OC(=O)N[C@@H](CCC(N)=O)C(=O)N[C@H](Cc1cn(C=O)c2ccccc12)C(=O)N[C@@H](Cc1ccccc1)C(=O)OCc1ccccc1 [QWF, BOC-GLN-D-(FORMYL)TRP-PHE-BENZYLESTER] (Boc-Gln-[dW](For)-Phe-OBn)
Plasma levels of total bilirubin, AST, ALT, ALP [1]: did not change plasma levels of total bilirubin, AST, ALT, or ALP
t1/2 in plasma [2]: 1.17 h

inhibition of the bilirubin-induced Ca2+ signal in MRGPRA1-expressing HEK cells (200 µM bilirubin kept in competition with varied doses of QWF) [3]: 2.9 µM
Compound: QWF (BOC-GLN-D-(FORMYL)TRP-PHE-BENZYLESTER) (peptide)
